Data reported in patent publication US10913727B2, “Modulators of the integrated stress pathway” (Calico Life Sciences LLC, priority 2016, dated 2021).

The compounds below were run on HEK293T cells carrying the ATF4 luciferase reporter (assay: ATF4-Luc assay, in vitro model of Vanishing Cell White Matter Disease (VWMD)). Conditions: Homo sapiens, HEK-293T, 1 μg/mL tunicamycin, 7 hours, One Glo luminescence.
Assay type: cell-based
Outline: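 Reporter cells were stably generated by retroviral transduction and puromycin selection, then seeded at 30,000 cells/well. Next day, cells received 1 μg/mL tunicamycin with 200 nM test compound for 7 h, and luciferase luminescence was read with a one-step reagent. Values reported as EC50.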

First: O=C(COc1ccc(Cl)c(F)c1)NC12CC(NC(=O)c3ccc(N4CCCC4)cn3)(C1)C2 [Compound 123, N-{3-[2-(4-chloro-3-fluorophenoxy)acetamido]bicyclo[1.1.1]pentan-1-yl}-5-(pyrrolidin-1-yl)pyridine-2-carboxamide]
Second: O=C(COc1ccc(Cl)c(F)c1)NC12CC(NC(=O)c3ccc(Cl)cn3)(C1)C2 [Compound 686, 5-chloro-N-{3-[2-(4-chloro-3-fluorophenoxy)acetamido]bicyclo[1.1.1]pentan-1-yl}pyridine-2-carboxamide]
The EC50 of the first is higher: 250 to 1000 nM for the first, < 50 nM for the second. The second is the more potent here.

`O=C(COc1ccc(Cl)c(F)c1)NC12CC(NC(=O)c3cnc(O)[nH]3)(C1)C2` [Compound 812, N-{3-[2-(4-chloro-3-fluorophenoxy)acetamido]bicyclo[1.1.1]pentan-1-yl}-2-hydroxy-1H-imidazole-5-carboxamide] and `O=C(COc1ccc(Cl)c(F)c1)NC12CC(NC(=O)c3cc(O)ccn3)(C1)C2` [Compound 183, N-{3-[2-(4-chloro-3-fluorophenoxy)acetamido]bicyclo[1.1.1]pentan-1-yl}-4-hydroxypyridine-2-carboxamide] fall in the same range of EC50: 1000 to 2000 nM for the first, 1000 to 2000 nM for the second.

Compared with `Cc1oc(C2CC2)cc1C(=O)NC12CC(NC(=O)COc3ccc(Cl)c(F)c3)(C1)C2` [Compound 881, N-{3-[2-(4-chloro-3-fluorophenoxy)acetamido]bicyclo[1.1.1]pentan-1-yl}-5-cyclopropyl-2-methylfuran-3-carboxamide], `Cc1ccc(C(=O)NC23CC(NC(=O)COc4ccc(Cl)c(F)c4)(C2)C3)o1` [Compound 555, N-{3-[2-(4-chloro-3-fluorophenoxy)acetamido]bicyclo[1.1.1]pentan-1-yl}-5-methylfuran-2-carboxamide] is lower in EC50: > 2000 nM for the first, 50 to 250 nM for the second.

First: Cc1cncc(C(=O)NC23CC(NC(=O)COc4ccc(Cl)c(Cl)c4)(C2)C3)c1 [Compound 645, N-{3-[2-(3,4-dichlorophenoxy)acetamido]bicyclo[1.1.1]pentan-1-yl}-5-methylpyridine-3-carboxamide]
Second: Cc1ccncc1C(=O)NC12CC(NC(=O)COc3ccc(Cl)c(Cl)c3)(C1)C2 [Compound 736, N-{3-[2-(3,4-dichlorophenoxy)acetamido]bicyclo[1.1.1]pentan-1-yl}-4-methylpyridine-3-carboxamide]
The EC50 of the first is lower: 50 to 250 nM for the first, > 2000 nM for the second.

`Cn1nccc1C(=O)NC12CC(NC(=O)COc3ccc(Cl)c(F)c3)(C1)C2` [Compound 388, N-{3-[2-(4-chloro-3-fluorophenoxy)acetamido]bicyclo[1.1.1]pentan-1-yl}-1-methyl-1H-pyrazole-5-carboxamide] and `O=C(COc1ccc(Cl)c(F)c1)NC12CC(NC(=O)c3ccoc3)(C1)C2` [Compound 305, N-{3-[2-(4-chloro-3-fluorophenoxy)acetamido]bicyclo[1.1.1]pentan-1-yl}furan-3-carboxamide] fall in the same range of EC50: 250 to 1000 nM for the first, 250 to 1000 nM for the second.

First: O=C(COc1ccc(Cl)c(F)c1)NC12CC(NC(=O)c3coc(-c4ccc(Cl)c(F)c4)n3)(C1)C2 [Compound 108, N-{3-[2-(4-chloro-3-fluorophenoxy)acetamido]bicyclo[1.1.1]pentan-1-yl}-2-(4-chloro-3-fluorophenyl)-1,3-oxazole-4-carboxamide]
Second: O=C(COc1ccc(Cl)c(F)c1)NC12CC(NC(=O)c3ncccc3Cl)(C1)C2 [Compound 899, 3-chloro-N-{3-[2-(4-chloro-3-fluorophenoxy)acetamido]bicyclo[1.1.1]pentan-1-yl}pyridine-2-carboxamide]
The EC50 of the first is lower: < 50 nM for the first, 250 to 1000 nM for the second.

First: Cc1cnc(C(=O)NC23CCC(NC(=O)COc4ccc(Cl)c(F)c4)(CC2)C(O)C3)c(C)n1 (stereo not drawn) [Compound 286, N-{4-[2-(4-chloro-3-fluorophenoxy)acetamido]-3-hydroxybicyclo[2.2.2]octan-1-yl}-3,5-dimethylpyrazine-2-carboxamide]
Second: Cc1ncc(C(=O)NC23CCC(NC(=O)COc4ccc(Cl)c(F)c4)(CC2)C(O)C3)s1 (stereo not drawn) [Compound 471, N-{4-[2-(4-chloro-3-fluorophenoxy)acetamido]-3-hydroxybicyclo[2.2.2]octan-1-yl}-2-methyl-1,3-thiazole-5-carboxamide]
The EC50 of the first is higher: 250 to 1000 nM for the first, 50 to 250 nM for the second.

`Cc1c(Cl)c(C(=O)NC23CC(NC(=O)COc4ccc(Cl)c(F)c4)(C2)C3)nn1C` [Compound 780, 4-chloro-N-{3-[2-(4-chloro-3-fluorophenoxy)acetamido]bicyclo[1.1.1]pentan-1-yl}-1,5-dimethyl-1H-pyrazole-3-carboxamide] and `Cc1ncc(C(=O)NC23CC(NC(=O)COc4ccc(Cl)c(F)c4)(C2)C3)c(C)n1` [Compound 784, N-{3-[2-(4-chloro-3-fluorophenoxy)acetamido]bicyclo[1.1.1]pentan-1-yl}-2,4-dimethylpyrimidine-5-carboxamide] cannot be ordered by EC50: > 2000 nM for the first, > 2000 nM for the second.

`O=C(COc1ccc(Cl)c(F)c1)NC12CC(NC(=O)c3ccccc3)(C1)C2` [Compound 198, N-{3-[2-(4-chloro-3-fluorophenoxy)acetamido]bicyclo[1.1.1]pentan-1-yl}benzamide] and `COCc1ccc(C(=O)NC23CC(NC(=O)COc4ccc(Cl)c(F)c4)(C2)C3)cc1` [Compound 552, N-{3-[2-(4-chloro-3-fluorophenoxy)acetamido]bicyclo[1.1.1]pentan-1-yl}-4-(methoxymethyl)benzamide] fall in the same range of EC50: 50 to 250 nM for the first, 50 to 250 nM for the second.

`O=C(COc1ccc(Cl)c(F)c1)NC12CC(NC(=O)c3cnc(C(F)(F)F)s3)(C1)C2` [Compound 563, N-{3-[2-(4-chloro-3-fluorophenoxy)acetamido]bicyclo[1.1.1]pentan-1-yl}-2-(trifluoromethyl)-1,3-thiazole-5-carboxamide] and `O=C(COc1ccc(Cl)c(F)c1)NC12CC(NC(=O)c3cnc(-c4ccc(C(F)(F)F)nc4)o3)(C1)C2` [Compound 107, N-{3-[2-(4-chloro-3-fluorophenoxy)acetamido]bicyclo[1.1.1]pentan-1-yl}-2-[6-(trifluoromethyl)pyridin-3-yl]-1,3-oxazole-5-carboxamide] cannot be ordered by EC50: < 50 nM for the first, < 50 nM for the second.

First: Cc1cc(C(=O)N(C)C23CC(NC(=O)COc4ccc(Cl)c(F)c4)(C2)C3)on1 [Compound 355, N-{3-[2-(4-chloro-3-fluorophenoxy)acetamido]bicyclo[1.1.1]pentan-1-yl}-N,3-dimethyl-1,2-oxazole-5-carboxamide]
Second: CC(C)c1csc(C(=O)NC23CC(NC(=O)COc4ccc(Cl)c(F)c4)(C2)C3)n1 [Compound 406, N-{3-[2-(4-chloro-3-fluorophenoxy)acetamido]bicyclo[1.1.1]pentan-1-yl}-4-(propan-2-yl)-1,3-thiazole-2-carboxamide]
The EC50 of the first is higher: 1000 to 2000 nM for the first, 50 to 250 nM for the second.

`O=C(COc1ccc(Cl)c(F)c1)NC12CC(NC(=O)c3cccc(Cn4cncn4)c3)(C1)C2` [Compound 892, N-{3-[2-(4-chloro-3-fluorophenoxy)acetamido]bicyclo[1.1.1]pentan-1-yl}-3-[(1H-1,2,4-triazol-1-yl)methyl]benzamide] and `O=C(COc1ccc(Cl)c(F)c1)NC12CC(NC(=O)c3ccc(OC4COC4)nc3)(C1)C2` [Compound 237, N-{3-[2-(4-chloro-3-fluorophenoxy)acetamido]bicyclo[1.1.1]pentan-1-yl}-6-[(oxetan-3-yl)oxy]pyridine-3-carboxamide] fall in the same range of EC50: 250 to 1000 nM for the first, 250 to 1000 nM for the second.

First: O=C(COc1ccc(F)c(F)c1)NC12CCC(NC(=O)c3ccc(C(F)(F)F)cn3)(CC1)C(O)C2 (stereo not drawn) [Compound 349, N-{4-[2-(3,4-difluorophenoxy)acetamido]-2-hydroxybicyclo[2.2.2]octan-1-yl}-5-(trifluoromethyl)pyridine-2-carboxamide]
Second: O=C(COc1ccc(F)c(F)c1)NC12CC(NC(=O)c3ccc(CCC4CC4)cn3)(C1)C2 [Compound 291, 5-(2-cyclopropylethyl)-N-{3-[2-(3,4-difluorophenoxy)acetamido]bicyclo[1.1.1]pentan-1-yl}pyridine-2-carboxamide]
The EC50 of the first is higher: 250 to 1000 nM for the first, 50 to 250 nM for the second. The second is the more potent here.

`O=C(COc1ccc(Cl)c(F)c1)NC12CC(NC(=O)c3csc(N4CCOCC4)n3)(C1)C2` [Compound 771, N-{3-[2-(4-chloro-3-fluorophenoxy)acetamido]bicyclo[1.1.1]pentan-1-yl}-2-(morpholin-4-yl)-1,3-thiazole-4-carboxamide] and `O=C(COc1ccc(Cl)c(F)c1)NC12CC(NC(=O)c3cnn4c3CCCC4)(C1)C2` [Compound 903, N-{3-[2-(4-chloro-3-fluorophenoxy)acetamido]bicyclo[1.1.1]pentan-1-yl}-4,5,6,7-tetrahydropyrazolo[1,5-a]pyridine-3-carboxamide] cannot be ordered by EC50: > 2000 nM for the first, > 2000 nM for the second.

`Cc1cc2c(C(=O)NC34CC(NC(=O)COc5ccc(Cl)c(Cl)c5)(C3)C4)nccn2n1` [Compound 562, N-{3-[2-(3,4-dichlorophenoxy)acetamido]bicyclo[1.1.1]pentan-1-yl}-2-methylpyrazolo[1,5-a]pyrazine-4-carboxamide] and `CC(C)n1ccc(C(=O)NC23CC(NC(=O)COc4ccc(Cl)c(F)c4)(C2)C3)n1` [Compound 819, N-{3-[2-(4-chloro-3-fluorophenoxy)acetamido]bicyclo[1.1.1]pentan-1-yl}-1-(propan-2-yl)-1H-pyrazole-3-carboxamide] fall in the same range of EC50: 250 to 1000 nM for the first, 250 to 1000 nM for the second.

`O=C(COc1ccc(Cl)c(F)c1)NC12CC(NC(=O)c3ccc(C4CC4)cn3)(C1)C2` [Compound 143, N-{3-[2-(4-chloro-3-fluorophenoxy)acetamido]bicyclo[1.1.1]pentan-1-yl}-5-cyclopropylpyridine-2-carboxamide] and `O=C(COc1ccc(Cl)c(F)c1)NC12CC(NC(=O)c3cnc(C4=CCOCC4)o3)(C1)C2` [Compound 138, N-{3-[2-(4-chloro-3-fluorophenoxy)acetamido]bicyclo[1.1.1]pentan-1-yl}-2-(3,6-dihydro-2H-pyran-4-yl)-1,3-oxazole-5-carboxamide] fall in the same range of EC50: 50 to 250 nM for the first, 50 to 250 nM for the second.

With `Cc1noc(C(=O)NC23CCC(NC(=O)COc4ccc(Cl)c(F)c4)(CC2)C(O)C3)n1` (stereo not drawn) [Compound 503, N-{4-[2-(4-chloro-3-fluorophenoxy)acetamido]-3-hydroxybicyclo[2.2.2]octan-1-yl}-3-methyl-1,2,4-oxadiazole-5-carboxamide] the EC50 was 50 to 250 nM.
